From the NIST ThermoML archive (doi:10.1016/j.tca.2015.10.014)

Conditions: Crystal, Calculated from knudsen effusion weight loss

[Br-].[Br-].[Pb+2] [lead(II) bromide]
Conditions	vapor or sublimation pressure [kPa]
532.3 K	7e-06
533 K	8e-06
533.1 K	8e-06
553.2 K	3.6e-05
553.7 K	2.6e-05
553.9 K	2.7e-05
571.5 K	6.1e-05
572.5 K	7.8e-05
573.7 K	7.5e-05
590.8 K	0.000233
591.9 K	0.000178
592.6 K	0.0002
611.3 K	0.000418
611.5 K	0.000573
612.9 K	0.000512
632.7 K	0.000886
633.5 K	0.001153
633.9 K	0.001334
